Assay results published in EPA's ToxValDB 9.5 (doi:10.2903/j.efsa.2015.4060).

Columns and labels:
[1] = system: Canidae; details: chronic; duration: 53 weeks; oral; Dog Other; organ weight
[2] = system: Lepomis macrochirus; details: acute; duration: 96 hours; mortality
[3] = system: Folsomia candida; details: chronic/long-term; duration: 28 days
[4] = system: Rattus norvegicus
[5] = system: Colinus virginianus
[6] = system: Oncorhynchus mykiss; details: chronic/long-term; duration: 88 days; other
[7] = system: Hypoaspis aculeifer; details: chronic/long-term; duration: 14 days
[8] = system: Daphnia magna; details: chronic/long-term; duration: 21 days; reproduction
[9] = system: Apis mellifera; details: acute, mortality
[10] = system: Tagia sp.

Cc1ccc(C(C)NC(=O)[C@@H](NC(=O)OC(C)C)C(C)C)cc1 (stereo not given in full) [Iprovalicarb] was tested, and the LOAEL [1] was 3 mg/kg-day, the LC50 [2] was over 20.7 µg/mL and the NOEC [3] was at least 1000 mg/kg. The LD50 ([4]; acute, oral, mortality) was over 5000 mg/kg-day, the NOAEL ([4]; chronic) was 146 mg/kg-day and the LD50 ([5]; acute, oral) was over 2000 mg/kg-day. It also gave an LC50 ([5]; acute, oral, diet) of over 1350 mg/kg-day, an NOAEL ([5]; reproduction developmental) of 161 mg/kg-day and an NOEC [6] of 5 mg/L. For the same compound, the NOEC [7] was at least 1000 mg/kg, the NOEC [8] was 1.89 mg/L and the LD50 ([9]; dermal) was over 200 µg/piece. For the same compound, the LD50 ([9]; oral, unspecified) was over 199 µg/piece, the LC50 ([10]; acute, duration: 14 days, mortality) was over 500 mg/kg and the NOEC ([10]; chronic/long-term, duration: 8 weeks) was at least 64 mg/kg.
